According to patent US20250367166A1, “NEXT GENERATION DIPROVOCIMS THAT ACTIVATE THE INNATE AND ADAPTIVE IMMUNE RESPONSE” (The Scripps Research Institute, priority 2022, published 2025):
Read-outs that look alike come from different tables or passages of the source.

Key:
TLR1/TLR2 [1] = target: TLR1/TLR2 (Homo sapiens, UniProt O60603+Q15399); experiment: TNF-α release from PMA-differentiated human THP-1 cells (ELISA); conditions: for Emax: THP-1, 4 h, read-out: Efficacy (magnitude) of response versus diprovocim-1 (100%), THP-1;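 as to all read-outs here: cells exposed to graded compound concentrations for 4 h, TNF-α quantified in supernatant, LPS as positive and DMSO as negative control, values are duplicate means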
Sequence of TLR1/TLR2 (Homo sapiens, UniProt O60603+Q15399) (Q15399 25-786): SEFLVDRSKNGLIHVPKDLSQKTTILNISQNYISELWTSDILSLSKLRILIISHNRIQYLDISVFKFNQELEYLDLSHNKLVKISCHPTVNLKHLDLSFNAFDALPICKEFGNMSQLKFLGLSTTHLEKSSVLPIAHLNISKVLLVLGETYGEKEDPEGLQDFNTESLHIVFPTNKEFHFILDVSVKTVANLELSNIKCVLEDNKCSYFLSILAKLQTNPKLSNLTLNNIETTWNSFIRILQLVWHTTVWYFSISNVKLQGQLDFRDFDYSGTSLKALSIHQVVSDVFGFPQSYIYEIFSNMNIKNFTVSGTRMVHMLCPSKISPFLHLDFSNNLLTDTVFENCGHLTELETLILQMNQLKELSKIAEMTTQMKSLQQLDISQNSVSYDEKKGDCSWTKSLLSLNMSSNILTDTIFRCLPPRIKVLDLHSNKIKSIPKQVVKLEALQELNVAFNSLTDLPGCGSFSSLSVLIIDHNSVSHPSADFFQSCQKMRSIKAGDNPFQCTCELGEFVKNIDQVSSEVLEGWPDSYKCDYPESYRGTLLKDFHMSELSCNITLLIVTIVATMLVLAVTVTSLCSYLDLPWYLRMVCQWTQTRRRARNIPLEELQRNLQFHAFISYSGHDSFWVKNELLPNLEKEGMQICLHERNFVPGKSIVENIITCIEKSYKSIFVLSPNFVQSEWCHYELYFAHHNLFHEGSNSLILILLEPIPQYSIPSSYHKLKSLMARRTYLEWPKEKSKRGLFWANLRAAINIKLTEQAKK
Sequence of TLR1/TLR2 (Homo sapiens, UniProt O60603+Q15399) (O60603 21-784): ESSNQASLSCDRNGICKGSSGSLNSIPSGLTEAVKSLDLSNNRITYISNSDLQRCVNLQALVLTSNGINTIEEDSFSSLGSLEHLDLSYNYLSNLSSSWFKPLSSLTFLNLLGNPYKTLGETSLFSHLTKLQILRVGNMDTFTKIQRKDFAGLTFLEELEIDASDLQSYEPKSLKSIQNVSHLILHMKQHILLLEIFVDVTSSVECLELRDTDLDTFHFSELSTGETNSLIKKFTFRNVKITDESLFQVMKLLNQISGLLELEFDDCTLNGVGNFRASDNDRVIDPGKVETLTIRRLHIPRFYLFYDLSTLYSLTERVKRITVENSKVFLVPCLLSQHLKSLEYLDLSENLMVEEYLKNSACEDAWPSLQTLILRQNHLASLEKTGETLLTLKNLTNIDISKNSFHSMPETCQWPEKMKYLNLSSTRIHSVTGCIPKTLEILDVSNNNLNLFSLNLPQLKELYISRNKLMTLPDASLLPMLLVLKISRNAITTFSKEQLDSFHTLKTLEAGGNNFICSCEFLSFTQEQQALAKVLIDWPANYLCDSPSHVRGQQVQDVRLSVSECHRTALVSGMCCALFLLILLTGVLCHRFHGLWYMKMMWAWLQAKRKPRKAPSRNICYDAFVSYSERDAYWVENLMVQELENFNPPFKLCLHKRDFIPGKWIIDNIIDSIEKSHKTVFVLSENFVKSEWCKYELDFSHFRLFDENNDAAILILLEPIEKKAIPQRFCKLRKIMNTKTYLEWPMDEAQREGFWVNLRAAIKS

TLR1/TLR2 [2] = target: TLR1/TLR2 (Mus musculus, UniProt Q9EPQ1+Q9QUN7); experiment: TNF-α release from thioglycolate-elicited mouse peritoneal macrophages (ELISA); conditions: for Emax: 4 h, read-out: Efficacy (magnitude) of response versus diprovocim-1 (100%), mouse macrophages
Sequence of TLR1/TLR2 (Mus musculus, UniProt Q9EPQ1+Q9QUN7) (Q9EPQ1 26-795): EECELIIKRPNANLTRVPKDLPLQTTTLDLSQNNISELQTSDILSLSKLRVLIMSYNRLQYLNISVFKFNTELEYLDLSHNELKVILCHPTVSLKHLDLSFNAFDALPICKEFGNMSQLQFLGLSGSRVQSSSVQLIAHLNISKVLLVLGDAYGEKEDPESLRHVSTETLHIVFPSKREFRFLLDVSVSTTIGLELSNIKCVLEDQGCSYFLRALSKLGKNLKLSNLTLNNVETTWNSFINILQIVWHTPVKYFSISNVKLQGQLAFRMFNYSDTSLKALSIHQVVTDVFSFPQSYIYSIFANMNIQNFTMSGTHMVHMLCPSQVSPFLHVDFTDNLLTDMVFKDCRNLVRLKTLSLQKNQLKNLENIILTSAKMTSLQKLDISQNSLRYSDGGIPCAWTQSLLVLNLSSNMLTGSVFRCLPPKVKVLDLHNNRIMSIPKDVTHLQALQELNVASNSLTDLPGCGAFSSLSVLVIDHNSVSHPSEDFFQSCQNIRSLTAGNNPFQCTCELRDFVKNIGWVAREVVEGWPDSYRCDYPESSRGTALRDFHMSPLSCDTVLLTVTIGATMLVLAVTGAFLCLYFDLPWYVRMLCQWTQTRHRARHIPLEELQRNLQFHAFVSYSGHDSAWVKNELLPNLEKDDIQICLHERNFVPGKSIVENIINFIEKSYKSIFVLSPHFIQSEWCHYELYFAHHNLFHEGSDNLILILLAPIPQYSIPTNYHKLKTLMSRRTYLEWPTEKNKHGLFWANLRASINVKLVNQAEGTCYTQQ
Sequence of TLR1/TLR2 (Mus musculus, UniProt Q9EPQ1+Q9QUN7) (Q9QUN7 25-784): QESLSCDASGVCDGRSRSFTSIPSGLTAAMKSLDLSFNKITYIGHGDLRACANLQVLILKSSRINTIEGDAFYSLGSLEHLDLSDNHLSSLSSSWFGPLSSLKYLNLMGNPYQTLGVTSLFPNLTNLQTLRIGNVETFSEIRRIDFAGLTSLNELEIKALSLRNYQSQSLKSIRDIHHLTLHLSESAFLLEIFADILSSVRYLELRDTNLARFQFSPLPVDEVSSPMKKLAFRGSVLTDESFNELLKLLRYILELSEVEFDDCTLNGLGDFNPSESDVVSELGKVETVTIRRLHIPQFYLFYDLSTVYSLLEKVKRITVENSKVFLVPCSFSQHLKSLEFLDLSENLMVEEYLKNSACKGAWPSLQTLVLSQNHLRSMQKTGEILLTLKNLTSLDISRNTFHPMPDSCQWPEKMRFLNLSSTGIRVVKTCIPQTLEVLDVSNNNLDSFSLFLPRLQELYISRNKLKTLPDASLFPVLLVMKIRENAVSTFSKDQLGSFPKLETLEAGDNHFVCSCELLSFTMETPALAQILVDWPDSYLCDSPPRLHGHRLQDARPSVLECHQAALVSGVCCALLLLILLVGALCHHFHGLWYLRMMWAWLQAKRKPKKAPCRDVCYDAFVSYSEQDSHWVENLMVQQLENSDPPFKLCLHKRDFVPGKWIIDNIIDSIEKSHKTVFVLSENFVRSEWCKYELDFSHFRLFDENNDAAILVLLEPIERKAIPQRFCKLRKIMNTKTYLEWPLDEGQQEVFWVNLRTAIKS
Method: Thioglycolate-elicited macrophages were recovered 4 days after i.p. injection of 2 mL BBL thioglycolate medium, brewer modified (4%; BD Biosciences) by peritoneal lavage with 5 mL phosphate buffered saline (PBS). […] Cells were seeded onto 96-well plates at 1×10^3 cells per well and treated with systematically varied concentrations of the candidate compounds (dissolved in DMSO, and final assay DMSO concentrations (0.5%) were kept constant in all experiments) for 4 h. Ultra-pure LPS (dissolved in H2O, Enzo Life Sciences) was assessed alongside the compounds as a positive control and DMSO treated controls. […] Mouse TNF-α in the supernatants was measured by ELISA kits according to the manufacturer's instructions (eBioscience). EC50's were calculated by Graphpad Prism. All data is mean of duplicates and SD is within ±10% of mean. Mouse cells were from wild type C57BL/6J mice.

[3] = read-out: EC50 (nM) (THP-1): EC50 TNF-α release from human THP-1 cells, Table 2
[4] = read-out: EC50 (nM) (THP-1): EC50 TNF-α release from human THP-1 cells, Table 3
[5] = read-out: EC50 (nM) (mouse): EC50 TNF-α release from mouse macrophages, Table 3

SMILES | EC50 (TLR1/TLR2 [1]; [3]) [nM] | EC50 (TLR1/TLR2 [2]) [nM] | Emax (TLR1/TLR2 [1]) [%] | EC50 (TLR1/TLR2 [1]; [4]) [nM] | Emax (TLR1/TLR2 [2]) [%] | EC50 (TLR1/TLR2 [2]; [5]) [nM] | EC50 (TLR1/TLR2 [1]) [nM]
O=C(NCCOCCOCCOCCO)[C@@H]1CN(C(=O)c2ccc(C(=O)N3C[C@@H](C(=O)N[C@H]4C[C@@H]4c4ccccc4)[C@H](C(=O)N[C@H]4C[C@@H]4c4ccccc4)C3)cc2)C[C@H]1C(=O)N[C@H]1C[C@@H]1c1ccccc1 [Compound 30, (3S,4S)-1-(4-((3S,4S)-3,4-Bis(((1S,2R)-2-phenyl-cyclopropyl)carbamoyl)pyrrolidine-1-carbonyl)-benzoyl)-N^3-(2-(2-(2-(2-hydroxyethoxy)ethoxy)ethoxy)-ethyl)-N^4-((1S,2R)-2-phenylcyclopropyl)-pyrrolidine-3,4-dicarboxamide] | 2000 | > 5000 |  |  |  |  | 
O=C(O)CCOCCOCCOCCNC(=O)[C@@H]1CN(C(=O)c2ccc(C(=O)N3C[C@@H](C(=O)N[C@H]4C[C@@H]4c4ccccc4)[C@H](C(=O)N[C@H]4C[C@@H]4c4ccccc4)C3)cc2)C[C@H]1C(=O)N[C@H]1C[C@@H]1c1ccccc1 [Compound 31, 1-((3S,4S)-1-(4-((3S,4S)-3,4-Bis(((1S,2R)-2-phenylcyclopropyl)carbamoyl)pyrrolidine-1-carbonyl)benzoyl)-4-(((1S,2R)-2-phenylcyclopropyl)-carbamoyl)pyrrolidin-3-yl)-1-oxo-5,8,11-trioxa-2-azatetradecan-14-oic acid] | 100 | > 5000 |  |  |  |  | 
O=C(CNC(=O)OCc1ccccc1)OCCCCCCCCCCCCNC(=O)[C@@H]1CN(C(=O)c2ccc(C(=O)N3C[C@@H](C(=O)N[C@H]4C[C@@H]4c4ccccc4)[C@H](C(=O)N[C@H]4C[C@@H]4c4ccccc4)C3)cc2)C[C@H]1C(=O)N[C@H]1C[C@@H]1c1ccccc1 [Compound 36, 12-((3S,4S)-1-(4-((3S,4S)-3,4-Bis(((1S,2R)-2-phenyl-cyclopropyl)carbamoyl)pyrrolidine-1-carbonyl)-benzoyl)-4-(((1S,2R)-2-phenylcyclopropyl)carbamoyl)-pyrrolidine-3-carboxamido)-dodecyl 2-(((benzyloxy)carbonyl)-amino)acetate] |  |  | 100 | 0.1 | 410 | 40 | 
O=C(CNC(=O)OCC(Cl)(Cl)Cl)OCCCCCCCCCCCCNC(=O)[C@@H]1CN(C(=O)c2ccc(C(=O)N3C[C@@H](C(=O)N[C@H]4C[C@@H]4c4ccccc4)[C@H](C(=O)N[C@H]4C[C@@H]4c4ccccc4)C3)cc2)C[C@H]1C(=O)N[C@H]1C[C@@H]1c1ccccc1 [Compound 37, 12-((3S,4S)-1-(4-((3S,4S)-3,4-Bis(((1S,2R)-2-phenyl-cyclopropyl)carbamoyl)pyrrolidine-1-carbonyl)benzoyl)-4-(((1S,2R)-2-phenylcyclopropyl)carbamoyl)pyrrolidine-3-carboxamido)-dodecyl 2-(((2,2,2-trichloroethoxy)-carbonyl)amino)acetate] |  |  | 100 | 0.27 | 300 | 3.4 | 
O=C(CNC(=O)OCC1c2ccccc2-c2ccccc21)OCCCCCCCCCCCCNC(=O)[C@@H]1CN(C(=O)c2ccc(C(=O)N3C[C@@H](C(=O)N[C@H]4C[C@@H]4c4ccccc4)[C@H](C(=O)N[C@H]4C[C@@H]4c4ccccc4)C3)cc2)C[C@H]1C(=O)N[C@H]1C[C@@H]1c1ccccc1 [Compound 38, 12-((3S,4S)-1-(4-((3S,4S)-3,4-Bis(((1S,2R)-2-phenyl-cyclopropyl)carbamoyl)pyrrolidine-1-carbonyl)benzoyl)-4-(((1S,2R)-2-phenylcyclopropyl)carbamoyl)pyrrolidine-3-carboxamido)-dodecyl 2-((((9H-fluoren-9-yl)methoxy)carbonyl)amino)acetate] |  |  | 100 | 56 | 170 | 375 | 
COC(=O)NCC(=O)OCCCCCCCCCCCCNC(=O)[C@@H]1CN(C(=O)c2ccc(C(=O)N3C[C@@H](C(=O)N[C@H]4C[C@@H]4c4ccccc4)[C@H](C(=O)N[C@H]4C[C@@H]4c4ccccc4)C3)cc2)C[C@H]1C(=O)N[C@H]1C[C@@H]1c1ccccc1 [Compound 39, 12-((3S,4S)-1-(4-((3S,4S)-3,4-Bis(((1S,2R)-2-phenylcyclopropyl)carbamoyl)pyrrolidine-1-carbonyl)benzoyl)-4-(((1S,2R)-2-phenylcyclopropyl)-carbamoyl)pyrrolidine-3-carboxamido)-dodecyl 2-((methoxycarbonyl)amino)acetate] |  |  | 100 | 0.38 | 120 | 6 | 
O=C(CNC(=O)C(F)(F)F)OCCCCCCCCCCCCNC(=O)[C@@H]1CN(C(=O)c2ccc(C(=O)N3C[C@@H](C(=O)N[C@H]4C[C@@H]4c4ccccc4)[C@H](C(=O)N[C@H]4C[C@@H]4c4ccccc4)C3)cc2)C[C@H]1C(=O)N[C@H]1C[C@@H]1c1ccccc1 [Compound 41, 12-((3S,4S)-1-(4-((3S,4S)-3,4-Bis(((1S,2R)-2-phenyl-cyclopropyl)carbamoyl)pyrrolidine-1-carbonyl)benzoyl)-4-(((1S,2R)-2-phenylcyclopropyl)-carbamoyl)pyrrolidine-3-carboxamido)-dodecyl 2-(2,2,2-trifluoroacetamido)acetate] |  |  | 100 | 0.7 | 100 | 3.5 | 
CC(C)(C)C(=O)NCC(=O)OCCCCCCCCCCCCNC(=O)[C@@H]1CN(C(=O)c2ccc(C(=O)N3C[C@@H](C(=O)N[C@H]4C[C@@H]4c4ccccc4)[C@H](C(=O)N[C@H]4C[C@@H]4c4ccccc4)C3)cc2)C[C@H]1C(=O)N[C@H]1C[C@@H]1c1ccccc1 [Compound 42, 12-((3S,4S)-1-(4-((3S,4S)-3,4-Bis(((1S,2R)-2-phenylcyclopropyl)carbamoyl)pyrrolidine-1-carbonyl)benzoyl)-4-(((1S,2R)-2-phenylcyclopropyl)carbamoyl)pyrrolidine-3-carboxamido)-dodecyl 2-pivalamidoacetate] |  |  | 110 | 1.8 | 110 | 6.2 | 

Continued, values first:

EC50 (TLR1/TLR2 [1]; [3]) [nM] | EC50 (TLR1/TLR2 [2]) [nM] | Emax (TLR1/TLR2 [1]) [%] | EC50 (TLR1/TLR2 [1]; [4]) [nM] | Emax (TLR1/TLR2 [2]) [%] | EC50 (TLR1/TLR2 [2]; [5]) [nM] | EC50 (TLR1/TLR2 [1]) [nM] | SMILES
 |  | 130 | 0.14 | 140 | 1.5 |  | CC(=O)OCCCCCCCCCCCCNC(=O)[C@@H]1CN(C(=O)c2ccc(C(=O)N3C[C@@H](C(=O)N[C@H]4C[C@@H]4c4ccccc4)[C@H](C(=O)N[C@H]4C[C@@H]4c4ccccc4)C3)cc2)C[C@H]1C(=O)N[C@H]1C[C@@H]1c1ccccc1 [Compound 32, 12-((3S,4S)-1-(4-((3S,4S)-3,4-Bis(((1S,2R)-2-phenyl-cyclopropyl)carbamoyl)pyrrolidine-1-carbonyl)benzoyl)-4-(((1S,2R)-2-phenylcyclopropyl)carbamoyl)pyrrolidine-3-carboxamido)dodecyl acetate]
 |  | 100 | 0.25 | 120 | 4.5 |  | N#CCC(=O)OCCCCCCCCCCCCNC(=O)[C@@H]1CN(C(=O)c2ccc(C(=O)N3C[C@@H](C(=O)N[C@H]4C[C@@H]4c4ccccc4)[C@H](C(=O)N[C@H]4C[C@@H]4c4ccccc4)C3)cc2)C[C@H]1C(=O)N[C@H]1C[C@@H]1c1ccccc1 [Compound 33, 12-((3S,4S)-1-(4-((3S,4S)-3,4-Bis(((1S,2R)-2-phenylcyclopropyl)carbamoyl)pyrrolidine-1-carbonyl)benzoyl)-4-(((1S,2R)-2-phenylcyclopropyl)-carbamoyl)pyrrolidine-3-carboxamido)dodecyl 2-cyanoacetate]
 |  | 100 | 0.21 | 120 | 3.7 |  | [N-]=[N+]=NCC(=O)OCCCCCCCCCCCCNC(=O)[C@@H]1CN(C(=O)c2ccc(C(=O)N3C[C@@H](C(=O)N[C@H]4C[C@@H]4c4ccccc4)[C@H](C(=O)N[C@H]4C[C@@H]4c4ccccc4)C3)cc2)C[C@H]1C(=O)N[C@H]1C[C@@H]1c1ccccc1 [Compound 34, 12-((3S,4S)-1-(4-((3S,4S)-3,4-Bis(((1S,2R)-2-phenylcyclopropyl)carbamoyl)pyrrolidine-1-carbonyl)-benzoyl)-4-(((1S,2R)-2-phenylcyclopropyl)carbamoyl)-pyrrolidine-3-carboxamido)dodecyl 2-azidoacetate]
 |  | 90 | 0.1 | 180 | 5 |  | CC(=O)NCC(=O)OCCCCCCCCCCCCNC(=O)[C@@H]1CN(C(=O)c2ccc(C(=O)N3C[C@@H](C(=O)N[C@H]4C[C@@H]4c4ccccc4)[C@H](C(=O)N[C@H]4C[C@@H]4c4ccccc4)C3)cc2)C[C@H]1C(=O)N[C@H]1C[C@@H]1c1ccccc1 [Compound 40, 12-((3S,4S)-1-(4-((3S,4S)-3,4-Bis(((1S,2R)-2-phenyl-cyclopropyl)carbamoyl)pyrrolidine-1-carbonyl)-benzoyl)-4-(((1S,2R)-2-phenylcyclopropyl)-carbamoyl)pyrrolidine-3-carboxamido)-dodecyl 2-acetamidoacetate]
 | 0.7 to 5 | 100 | 0.07 | 100 | 0.75 | 0.05 to 0.2 | NCC(=O)OCCCCCCCCCCCCNC(=O)[C@@H]1CN(C(=O)c2ccc(C(=O)N3C[C@@H](C(=O)N[C@H]4C[C@@H]4c4ccccc4)[C@H](C(=O)N[C@H]4C[C@@H]4c4ccccc4)C3)cc2)C[C@H]1C(=O)N[C@H]1C[C@@H]1c1ccccc1 [Compound 43, 12-((3S,4S)-1-(4-((3S,4S)-3,4-Bis(((1S,2R)-2-phenylcyclopropyl)carbamoyl)pyrrolidine-1-carbonyl)benzoyl)-4-(((1S,2R)-2-phenylcyclopropyl)carbamoyl)pyrrolidine-3-carboxamido)dodecyl glycinate]
